Data published in patent publication US11485714B2, “Hydroxyethylamine-based piperazine compounds, and methods of producing and using the same for treating disease” (National Institute of Immunology, priority 2020, dated 2022).
Read-outs that look alike come from different tables or passages of the source.

What was measured:
[1] = system: P. berghei ookinete (Pb-GFPcon); test: In vitro ookinete inhibition assay; assay type: cell-based, Plasmodium berghei
Experimental: [3] In vitro Ookinete inhibition assay of Calxinin. To determine whether Compound I (Calxinin) is blocking the growth of the transmission stage of malaria GFP-expressing P. berghei ANKA constitutively (Pb-GFPcon), which expresses the GFP during all the developmental stages, was used during in vitro experiments. Compound I (Calxinin) was tested in nanomolar range for its ability to inhibit ookinete development. Early gametocyte stage was maintained in vitro by incubating in ookinete media containing Xanthrunic acid and various other nutrients (complete DMEM) and pH 8.0. For the inhibition assay, culture plates containing Calxinin at different concentrations were incubated for about 24 h at 19° C. on a shaker and in the dark. After 24 h, ookinete development was checked by generating blood smears from the cultures. Smears were fixed, stained with Giemsa and counted in a NIKON 80i microscope.
Example 13—In-vitro Ookinete inhibition assay Encouraged with notable potency against symptomatic asexual blood stage, liver stage, and gametocidal activity, transmission blocking efficacy of Compound I (Calxinin) was evaluated against ookinete. […] As the concentration of Compound I increases, the percentage of healthy parasite is reduced and the % of deformed parasite increases (FIG. 7B).

[2] = system: P. falciparum CQ-sensitive (Pf3D7); test: SYBR Green I assay, asynchronous cultures, CQ-sensitive clone; assay type: cell-based; details: Plasmodium falciparum
Experimental: Initially, antimalarial activity of Compound I was assessed on asynchronous cultures of P. falciparum sensitive (Pf3D7) clone using the SYBR Green assay. […] DMSO was used as a vehicle control, CQ (Chloroquine), DOX (Doxycycline) and DHA (Dihydroartemisinin).

primary and human cells = test: Cell cytotoxicity assays in primary and human cells (summary statements); assay type: cell-based
Experimental: PBMC were isolated from healthy donors using the Ficoll-Paque™ technique (GE Healthcare Bioscience AB, Uppsala, Sweden) from donor leukopack samples obtained from LUMC blood bank services. […] Robust cells at a concentration of 80,000 cells/ml were plated into 96-well plates and incubated for 24 hours. Cell viability and proliferation was determined by use of both MTT and Cell Titer Glo@ assays for both cell types. MTT assay was conducted by addition of 10 μL MTT solution (5 mg/mL) into each well, incubated for 4 hour at 37° C. followed by addition of 50 μL DMSO to dissolve the formazan precipitate according to the manufacturer's protocol. Aliquots were drawn from each well and color intensity was measured spectrophotometrically in SpectraMax® M5 Multi-Mode Microplate Reader.
In addition, the cell viability of Huh 7 and HEK293 cells was evaluated post drug exposure using the Alamar Blue assay [Riss, Terry L., et al. “Cell viability assays.” Assay Guidance Manual [Intenet]. […] Cells (1×10/well) were exposed to varying concentrations of test compounds, for 24 hours in 96-well plate format along with 10/100 μL Alamar Blue solution (10×=4.8 mM in phosphate buffer) per well.

[3] = In vitro cytotoxicity, HepG2; assay type: cell-based; details: human, HepG2 cells; read-out: CC50 (50% cell toxicity)
[4] = In vitro cytotoxicity, HEK293 (Alamar Blue); assay type: cell-based; details: human, HEK293 cells; read-out: CC50 (50% cell toxicity)
Experimental: In addition, the cell viability of Huh 7 and HEK293 cells was evaluated post drug exposure using the Alamar Blue assay [Riss, Terry L., et al. “Cell viability assays.” Assay Guidance Manual [Intenet]. Eli Lilly & Company and the National Centre for Advancing Translational Sciences, 2016]. Cells ([…]) were exposed to varying concentrations of test compounds, for 24 hours in 96-well plate format along with 10/100 μL Alamar Blue solution (10×=4.8 mM in phosphate buffer) per well. […] Results from the cytotoxicity assays were expressed as CC50 at which 50% of the cells died/metabolically slowed down due to drug exposure compared to the non-treated and vehicular control.
The cytotoxicity of Compound I was tested by exposing peripheral blood mononuclear cells (PBMCs) to drug concentrations corresponding to averages of both Pf3D7 and PfDd2 IC50 values. This was intended to establish whether the observed antiparasitic effects of the compounds were due to non-specific inhibitory activity. […] The IC50 required for killing the parasite is <90 nM. Therefore, in order to be toxic for human cells we have to use over 650 fold concentration.

human platelets = test: Agonist-induced platelet aggregation; assay type: cell-based; details: up to 20 μg/ml
Experimental: Studies were performed to assess the effect of Calxinin on hemostatic parameters using plasmatic and whole blood assays.

[5] = system: P. berghei sporozoites in HepG2 cells; test: Liver stage infection in HepG2 cells, qPCR of 18SrRNA; assay type: cell-based, Plasmodium berghei; details: for IC50: read-out: in-vitro liver stage IC50
Source text: Liver stage infection in HepG2 cells: Salivary glands of Anopheles stephensi mosquitoes infected with green fluorescent protein (GFP)-expressing P. berghei ANKA (Insectary at National Institute of Immunology, New Delhi, India) were dissected out. Sporozoites were perched in complete medium (Dulbecco's Modified Eagle Medium (DMEM)) with 10% fetal bovine serum (FBS), 3% penicillin-streptomycin (P/S)), and allowed to infect HepG2 cells. The cells were already treated with Calxinin at various concentrations (0.1 μM, 1 μM and 10 μM). The plate was centrifuged at 3000 rpm for 5 minutes to ensure the sporozoites settled down in the plate, and then placed in the incubation at 37° C. for 3 hours. Afterwards, media was replaced with pre-warmed medium (DMEM, 10% FBS, 3% P/S, and 0.1% Fungizone) supplemented with dimethyl sulfoxide (DMSO), and Calxinin at indicated concentrations. After two days, the cells were treated with Trizol and […] at −80° C. RNA isolation followed by reverse transcription polymerase chain reaction (RTPCR) was done to estimate the parasite load in the infected cells.
Compound I was tested in vitro against Plasmodium liver stage parasites. HepG2 cells, a human hepatocyte cell line, were infected with Plasmodium berghie sporozoites (mosquito infective forms of malaria). One set of cells was treated with 0.4, 2.0 and 10.0 micromolar concentration of inhibitor Compound I, and the other set was left untreated. Sporozoite infection time was considered as zero time. Twenty-four hours after infection the culture media was refreshed and the inhibitors were replenished. After forty-eight hours, total cells were harvested and total RNA was extracted by the Trizol™ method. RNA was converted into cDNA and realtime PCR was performed using the parasite 18SrRNA primers. This determined the liver stage parasite burden, which was then converted into percent inhibition by comparing with the untreated set.
Liver schizont stages are the first stage of human infection after injection of sporozoites by mosquitoes. The activity of compounds against this stage offers the important part of the antimalarial therapy, chemoprotection. To evaluate the efficacy of Compound I against liver stage parasites, HepG2 cells were infected with P. berghei sporozoites, in triplicates, and dosed with 0.1, 1, 10 μM of Compound I dissolved in 1% DMSO. The parasite load was quantified in control and Compound I-treated cells by quantitative PCR (qPCR) using parasite specific 18SrRNA primers. […] Inhibitory effect decreases up to 61% while treating cells with 10 μM due to precipitation of compound at higher concentration (FIG. 3). […] The liver stage activity of Compound I is much higher over the current treatments, atovaquone (ATQ) in culture.

[6] = system: P. falciparum, strain IPC 3445; test: Growth inhibition of ART resistant field strain; assay type: cell-based; details: Plasmodium falciparum, 72 h, read-out: IC50, ART resistant strain IPC 3445
Experimental: Plasmodium falciparum (P. falciparum), strain IPC 3445 was isolated in 2010 from the blood of a human patient with malaria in Pailin province, western Cambodia. Parasites were grown in the lab and tested with different concentrations of the Calxinin and DHA (100 μM-90 nM) for 72 hr incubations.

[7] = system: Field isolates from Kenya (P. falciparum infected blood); test: Screening against freshly collected field isolates; assay type: cell-based; details: Plasmodium falciparum

Which ookinete morphology ([1]; 450 nanomolar) does the source give for `NC(Cc1ccccc1)C(O)CN1CCN(Cc2ccc(C(F)(F)F)cc2)CC1` (stereo not drawn) [Compound I] here?
Its ookinete morphology is “deformed and retarded Ookinete”.

What about the IC50 ([1]; Plasmodium berghei, 24 h, 19° C.) of the same compound?
Its IC50 is about 0.15 µM.

And the IC50 ([2]; 3D7, read-out: IC50 against asexual stages, drug sensitive (CQ-sensitive) 3D7, text)?
The IC50 was 88 nM.

What about the IC50 ([2]; 72 h, read-out: Pf3D7 IC50, nM (±SD), asynchronous cultures, 37° C., 72 hours, SYBR Green I) of the same compound?
The IC50 was 90 nM.

And the IC50 ([2]; strain not specified, read-out: IC50 required for killing the parasite)?
The IC50 was under 90 nM.

What about the “toxicity to HEK293, Huh 7.1, HepG2 and PBMCs” value (primary and human cells) of the same compound?
The value was “did not show any toxicity”.

And the “concentration up to which no toxicity was seen” value (primary and human cells; primary and human cells)?
Its value is over 30 µM.

And the CC50 [3]?
Its CC50 is 1350 µM.

And the CC50 at 24 h [4]?
Its CC50 at 24 h is 60.2 µM.

What about the “agonist-induced aggregation of human platelets” value (human platelets) of the same compound?
The value was “did not alter agonist-induced aggregation of human platelets”.

And the inhibition at 0.1 µM ([5]; Plasmodium berghei, HepG2, 0.1 μM, read-out: inhibition of liver stage parasite load)?
The inhibition at 0.1 µM was about 60%.

What about the inhibition at 1 µM ([5]; Plasmodium berghei, HepG2, 1 μM, read-out: inhibition of liver stage parasite load) of the same compound?
Its inhibition at 1 µM is about 88%.

And the inhibition at 10 µM ([5]; Plasmodium berghei, HepG2, 10 μM, precipitation of compound, read-out: inhibition of liver stage parasite load)?
The inhibition at 10 µM was at most 61%.

What about the IC50 ([5]; Plasmodium berghei, HepG2) of the same compound?
Its IC50 is 0.079 µM.

And the IC50 ([5]; listed as Calxinin)?
The IC50 was 0.065 µM.

And the IC50 [6]?
Its IC50 is 0.0926 µM.

And the IC50 ([7]; read-out: Field isolates from Kenya IC50, nM (±SD))?
The IC50 was 50 nM.

And the IC50 ([7]; read-out: IC50 against freshly collected field isolates of P. falciparum infected blood)?
The IC50 was 643 nM.
